For series [1], the system named is cytoadherence of P. falciparum parasitised red cells to C32 melanoma cells. The series can be described thus: C32 melanoma cell cytoadherence assay with SNO-cysteine-treated parasitised red cells. As to conditions: Expt 5: JR strain, SNO-cysteine final concentration 5 mM, 40 minutes, parasitised red cells resuspended in 2% w/v borate. In kind it is cell-based, Plasmodium falciparum.

For the next series, the system named is endothelial cells. As to conditions: 0.2 mmol/l, 24 hours in conjunction with IL-1; cited from earlier work.
A further series concerns VCAM-1. The following applies: 0.2 mmol/l, 24 hours in conjunction with IL-1; cited from earlier work.

In the case of `N[C@@H](CSN=O)C(=O)O` [SNO-cysteine], the “binding (cytoadherence to C32 melanoma cells)” value in series [1] is on record as 0%. Consider `N[C@@H](CCC(=O)N[C@@H](CSN=O)C(=O)NCC(=O)O)C(=O)O` [SNO-glutathione], for which the endothelial toxicity entry in the series on endothelial cells was “minimal endothelial toxicity”. In addition, the “inhibition of VCAM-1” value in the series with VCAM-1 is on record as “maximal inhibition of VCAM-1”.

Source of the values: patent publication US7179615B1 (priority 1997, dated 2007).
